Key:
rat [1] = details: Prenatal developmental toxicity study, other, Oral, Gavage/Intubation, dose end: 15 GD
rat [2] = details: Combined chronic toxicity/carcinogenicity, sprague dawley, Oral, Feed, dose end: 25 month, group: systemic
mouse = details: Carcinogenicity, cd1, Oral, [Not Specified], dose end: 99 week, group: systemic
rat [3] = details: Subchronic oral toxicity in rodents, wistar, Feed, dose end: 6 week, group: systemic
rat [4] = details: Subchronic oral toxicity in rodents, sprague dawley, Feed, dose end: 13 week, group: systemic
rat [5] = details: Multigenerational reproductive toxicity study; sprague dawley; Oral; Gavage/Intubation; dose end: 17 GD; group: parental; systemic / in life observation / body weight / body weight + systemic / in life observation / food consumption / food consumption + systemic…
rat [6] = details: Sub-acute repeat dose toxicity, sprague dawley, Oral, Gavage/Intubation, dose end: 1 month, group: systemic
dog = details: Sub-acute repeat dose toxicity; beagle; Oral; Gavage/Intubation; dose end: 1 month; group: systemic; systemic / in life observation / clinical signs / external lesion(s) + systemic / in life observation / clinical signs / reactivity to …
rat [7] = details: Prenatal developmental toxicity study, sprague dawley, Oral, Gavage/Intubation, dose end: 17 GD
rat [8] = details: Sub-acute repeat dose toxicity, sprague dawley, Oral, Gavage/Intubation, dose end: 1 month, group: systemic; remark: listed apart in the source
rat [9] = details: Fertility (Segment I), sprague dawley, Oral, Gavage/Intubation, dose end: 7 PND
rabbit = details: Prenatal developmental toxicity study, new zealand white, Oral, Gavage/Intubation, dose end: 19 GD
rat [10] = details: Prenatal developmental toxicity study, sprague dawley, Oral, Gavage/Intubation, dose end: 17 GD; remark: listed apart in the source
[11] = group: developmental, developmental / developmental malformation / eye / anophthalmia + developmental / developmental malformation / eye / microphthalmia
[12] = group: maternal, systemic / in life observation / body weight / body weight gain
[13] = systemic / clinical chemistry / alanine aminotransferase (alt/sgpt) / alanine aminotransferase (alt/sgpt) + systemic / clinical chemistry / …
[14] = systemic / pathology microscopic / liver / hypertrophy
[15] = systemic / in life observation / body weight / body weight gain + systemic / in life observation / mortality / mortality + systemic / organ …
[16] = systemic / in life observation / body weight / body weight gain + systemic / clinical chemistry / protein / protein + systemic / clinical …
[17] = systemic / clinical chemistry / albumin / albumin + systemic / clinical chemistry / protein / protein
[18] = systemic / clinical chemistry / cholesterol / cholesterol + systemic / in life observation / body weight / body weight + systemic / in life …
[19] = systemic / clinical chemistry / cholesterol / cholesterol + systemic / organ weight / liver / absolute + systemic / organ weight / liver / …
[20] = systemic / pathology microscopic / liver / arteritis + systemic / pathology microscopic / liver / degeneration
[21] = group: developmental, systemic / in life observation / body weight / fetal weight
[22] = group: maternal, systemic / in life observation / body weight / body weight gain + systemic / in life observation / clinical signs / body cold to touch + …
[23] = systemic / in life observation / body weight / body weight + systemic / in life observation / body weight / body weight gain + systemic / in…
[24] = systemic / in life observation / clinical signs / body temperature
[25] = group: maternal, reproductive / reproductive performance / estrous cycle / abnormal + reproductive / reproductive performance / estrous cycle / corpora lutea…
[26] = group: parental, systemic / in life observation / body weight / body weight gain + systemic / in life observation / clinical signs / salivation + systemic / …
[27] = group: parental, systemic / in life observation / clinical signs / salivation
[28] = group: maternal, reproductive / reproductive performance / aborted / aborted + reproductive / reproductive performance / postimplantation loss / …
[29] = group: maternal, reproductive / reproductive performance / aborted / aborted + systemic / in life observation / clinical signs / body temperature + systemic…
[30] = group: developmental, developmental / developmental malformation / bone / [other] + developmental / developmental malformation / bone / absent + developmental / …
[31] = group: maternal, reproductive / reproductive performance / postimplantation loss / postimplantation loss + reproductive / reproductive performance / …
[32] = group: maternal, systemic / in life observation / body weight / body weight gain + systemic / in life observation / food consumption / food consumption

CCCN(CCC)c1c([N+](=O)[O-])cc(C(F)(F)F)c(N)c1[N+](=O)[O-] [Prodiamine]
LEL (rat [1]; [11]): 100 mg/kg/day | LOAEL (rat [1]; [11]): 100 mg/kg/day | NEL (rat [1]; [11]): < 100 mg/kg/day | NOAEL (rat [1]; [11]): < 100 mg/kg/day | LEL (rat [1]; [12]): 1000 mg/kg/day | LOAEL (rat [1]; [12]): 1000 mg/kg/day | NEL (rat [1]; [12]): 300 mg/kg/day | NOAEL (rat [1]; [12]): 300 mg/kg/day | LOAEL (rat [2]; [13]): 37 mg/kg/day | NOAEL (rat [2]; [13]): 9.1 mg/kg/day | LEL (rat [2]; [14]): 1.8 mg/kg/day | NEL (rat [2]; [14]): < 1.8 mg/kg/day | LOAEL (mouse; [15]): 750 mg/kg/day | NEL (mouse; [15]): 7.5 mg/kg/day | NOAEL (mouse; [15]): 75 mg/kg/day | LEL (mouse; systemic / in life observation / body weight / body weight gain + systemic / organ weight / kidney / nos + systemic / in life observation / …): 75 mg/kg/day | LEL (rat [3]; systemic / clinical chemistry / protein / protein): 63 mg/kg/day | LOAEL (rat [3]; systemic / in life observation / body weight / body weight gain): 681 mg/kg/day | NEL (rat [3]; [16]): 16.8 mg/kg/day | NOAEL (rat [3]; [16]): 63 mg/kg/day | LEL (rat [4]; [17]): 26.7 mg/kg/day | NEL (rat [4]; [17]): < 26.7 mg/kg/day | LOAEL (rat [4]; [18]): 269 mg/kg/day | NOAEL (rat [4]; [18]): 80.1 mg/kg/day

NC(=O)N(O)[C@@H]1COc2cc(OCc3ccccc3)ccc21
LEL (rat [5]): 1000 mg/kg/day | LOAEL (rat [5]): > 1000 mg/kg/day | NEL (rat [5]): 100 mg/kg/day | NOAEL (rat [5]): ≥ 1000 mg/kg/day | LOAEL (rat [6]; [19]): > 1000 mg/kg/day | NOAEL (rat [6]; [19]): ≥ 1000 mg/kg/day | LEL (rat [6]; [20]): 100 mg/kg/day | NEL (rat [6]; [20]): < 100 mg/kg/day

O=C(Nc1ccc2[nH]ccc2c1)c1cc2cc(F)ccc2n1Cc1cccc(F)c1
LEL (dog): 0.05 mg/kg/day | LOAEL (dog): > 1 mg/kg/day | NEL (dog): < 0.05 mg/kg/day | NOAEL (dog): ≥ 1 mg/kg/day | LEL (rat [7]; [21]): 10 mg/kg/day | LOAEL (rat [7]; [21]): > 400 mg/kg/day | NEL (rat [7]; [21]): < 10 mg/kg/day | NOAEL (rat [7]; [21]): ≥ 400 mg/kg/day | LEL (rat [7]; [22]): 10 mg/kg/day | LOAEL (rat [7]; [22]): > 400 mg/kg/day | NEL (rat [7]; [22]): < 10 mg/kg/day | NOAEL (rat [7]; [22]): ≥ 400 mg/kg/day | LOAEL (rat [8]; [23]): 100 mg/kg/day | NOAEL (rat [8]; [23]): 2 mg/kg/day | LEL (rat [8]; [24]): 2 mg/kg/day | NEL (rat [8]; [24]): < 2 mg/kg/day | LEL (rat [9]; [25]): 6 mg/kg/day | LOAEL (rat [9]; [25]): 6 mg/kg/day | NEL (rat [9]; [25]): 1 mg/kg/day | NOAEL (rat [9]; [25]): 1 mg/kg/day | LOAEL (rat [9]; [26]): 6 mg/kg/day | NOAEL (rat [9]; [26]): 1 mg/kg/day | LEL (rat [9]; [27]): 1 mg/kg/day | NEL (rat [9]; [27]): < 1 mg/kg/day | LEL (rabbit; [21]): 5 mg/kg/day | LOAEL (rabbit; [21]): > 900 mg/kg/day | NEL (rabbit; [21]): < 5 mg/kg/day | NOAEL (rabbit; [21]): ≥ 900 mg/kg/day | LOAEL (rabbit; [28]): > 900 mg/kg/day | NOAEL (rabbit; [28]): ≥ 900 mg/kg/day | LEL (rabbit; [29]): 5 mg/kg/day | NEL (rabbit; [29]): < 5 mg/kg/day | LEL (rat [10]; [30]): 6 mg/kg/day | LOAEL (rat [10]; [30]): 6 mg/kg/day | NEL (rat [10]; [30]): 1 mg/kg/day | NOAEL (rat [10]; [30]): 1 mg/kg/day | LOAEL (rat [10]; [31]): 6 mg/kg/day | NOAEL (rat [10]; [31]): 1 mg/kg/day | LEL (rat [10]; [32]): 1 mg/kg/day | NEL (rat [10]; [32]): < 1 mg/kg/day

Reference: EPA's ToxRefDB 2
